In BindingDB's records for PubMed 10411588 (The University of Calgary, 1999):
Where a SMILES comes first, the peptide text is derived from it.

These compounds were tested against T1, Proteinase-activated receptor 2 (Rattus norvegicus, UniProt Q63645).
T1 sequence (Q63645 whole entry): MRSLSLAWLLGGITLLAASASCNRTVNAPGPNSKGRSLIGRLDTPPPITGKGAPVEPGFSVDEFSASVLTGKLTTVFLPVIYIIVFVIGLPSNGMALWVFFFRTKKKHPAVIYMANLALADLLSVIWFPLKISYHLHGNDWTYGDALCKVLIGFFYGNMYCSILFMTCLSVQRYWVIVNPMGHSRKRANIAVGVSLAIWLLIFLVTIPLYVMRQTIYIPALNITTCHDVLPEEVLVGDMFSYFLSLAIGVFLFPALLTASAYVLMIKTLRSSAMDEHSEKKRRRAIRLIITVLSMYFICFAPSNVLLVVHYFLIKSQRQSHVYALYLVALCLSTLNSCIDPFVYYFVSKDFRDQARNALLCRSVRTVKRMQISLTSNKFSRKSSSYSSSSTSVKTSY

| SMILES | Ki |
| --- | --- |
| CC(C)C[C@H](NC(=O)[C@H](CC(C)C)NC(=O)[C@H](Cc1ccccc1)NC(=O)[C@@H](N)CO)C(=O)N[C@@H](CCCN=C(N)N)C(=O)O [SFLLR-OH] | > 10 µM |
| CC(C)C[C@H](NC(=O)[C@H](CC(C)C)NC(=O)[C@H](Cc1ccccc1)NC(=O)[C@@H](N)CO)C(=O)N[C@@H](CCCN=C(N)N)C(N)=O [SFLLR-NH2] | 2.3 µM |
| CC[C@H](C)[C@H](NC(=O)[C@H](CC(C)C)NC(=O)C=Cc1ccccc1)C(=O)NCC(=O)N[C@@H](CCCNC(=N)N)C(=O)N[C@@H](CC(C)C)C(=O)N[C@@H](CCCN)C(N)=O [trans-cinnamoyl-LIGRLO-NH2] (HELM PEPTIDE1{[O=C(C=Cc1ccccc1)[*:2]].L.I.G.R.L.[Orn].[am]}$$$$V2.0) | 0.26 µM |
| CC[C@H](C)[C@H](NC(=O)[C@H](CC(C)C)NC(=O)[C@@H](N)CO)C(=O)NCC(=O)N[C@@H](CCCNC(=N)N)C(=O)N[C@@H](CC(C)C)C(N)=O [CAS_171436-38-7] (H-SLIGRL-NH2) | 0.26 µM |
